Data from patent US10570152B2, “Antibacterial therapeutics and prophylactics” (VYOME BIOSCIENCES PVT. LTD., priority 2015, dated 2020).
≈ marks a conversion by molar mass, not a printed value.

Tests used:
[1] = test system: S. epidermidis S5-2; assay: Sequential ZIB (zone of inhibition) assay for PMMA beads; type: cell-based, Staphylococcus epidermidis; conditions: SmartSet HV impregnated beads
Protocol: S. epidermidis S5-2 cells were grown in Brain Heart Infusion Agar (BHIA) at 37° C. for 24 h. 100 μl of 0.5 McFarland equal bacterial suspension was spread on BHA plates. Drug loaded beads were placed above these plates. Plates were incubated at 37° C. for 24 h. Next day, zone of inhibition (ZOI) the beads were measured following which the beads were placed on fresh BHA plates with bacterial suspension spread and this experiment was continued up to seven days. The drug release pattern was determined by compiling and analyzing the ZOI data of beads on each ZOI cycle up to seven days.

[2] = Drug release assay of compound impregnated Smart set HV; type: physicochemical; conditions: Smart set HV loaded; PBS buffer (pH 6.8):acetonitrile (9:1), 32° C., 7 days
Protocol: The drug release study with compound 2 and compound 10 were conducted in sample vial containing 1.5 ml of dissolution media i.e., PBS buffer (pH 6.8):acetonitrile (9:1). The sample was kept in incubator rotator at 32° C. at 40 rpm. The release medium was withdrawn at specified interval of time (2 hr, 4 hr, 6 hr, day 1, day 2, day 3, day 4, day 5, day 6, day 7 and replaced by fresh 1.5 ml dissolution medium each time. All the samples were kept at −20° C. till the analysis is done. The measurement of drug release was done by HPLC.

[3] = test system: P. aeruginosa CCARM 2161; assay: MIC by micro broth dilution; type: cell-based; conditions: Pseudomonas aeruginosa, CCARM2161, read-out: Minimum inhibitory concentration (MIC)
How it was run: (§1)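 Bacteria were grown on BHI agar at 37° C. for 24 h, adjusted to 0.5 McFarland and diluted 100-fold. This suspension was added to serially doubled compound in BHI broth, incubated 24 h at 37° C., and MIC was read with Alamar blue.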

[4] = test system: E. coli BAA 196; assay: MIC by micro broth dilution; type: cell-based; conditions: Escherichia coli, BAA196, read-out: Minimum inhibitory concentration (MIC)
How it was run: as §1

[5] = test system: S. aureus CCARM 3505; assay: MIC by micro broth dilution; type: cell-based; conditions: Staphylococcus aureus, CCARM3505, read-out: Minimum inhibitory concentration (MIC)
How it was run: as §1

[6] = test system: E. fecalis CCARM 5168; assay: MIC by micro broth dilution; type: cell-based; conditions: read-out: Minimum inhibitory concentration (MIC)
How it was run: as §1

[7] = test system: K. pneumonia ATCC 13883; assay: MIC by micro broth dilution; type: cell-based
How it was run: as §1

[8] = test system: S. epidermidis S12-1; assay: MIC by micro broth dilution; type: cell-based; conditions: Staphylococcus epidermidis, S121, read-out: Minimum inhibitory concentration (MIC)
How it was run: as §1

[9] = test system: S. epidermidis ATCC 35984; assay: MIC by micro broth dilution; type: cell-based; conditions: Staphylococcus epidermidis, ATCC35984, read-out: Minimum inhibitory concentration (MIC)
How it was run: as §1

[10] = test system: E. faecium NCIM 5421; assay: MIC by micro broth dilution; type: cell-based; conditions: Enterococcus faecium, NCIM5421, read-out: Minimum inhibitory concentration (MIC)
How it was run: as §1

[11] = test system: P. aeruginosa CCARM 2204; assay: MIC by micro broth dilution; type: cell-based; conditions: Pseudomonas aeruginosa, CCARM2204, read-out: Minimum inhibitory concentration (MIC)
How it was run: as §1

[12] = test system: A. baumannii ATCC 1906; assay: MIC by micro broth dilution; type: cell-based; conditions: Acinetobacter baumannii, ATCC1906, read-out: Minimum inhibitory concentration (MIC)
How it was run: as §1

[13] = test system: E. faecium CCARM 5207; assay: MIC by micro broth dilution; type: cell-based; conditions: Enterococcus faecium, CCARM5207, read-out: Minimum inhibitory concentration (MIC)
How it was run: as §1

[14] = test system: E. coli MTCC 1687; assay: MIC by micro broth dilution; type: cell-based; conditions: Escherichia coli, MTCC1687, read-out: Minimum inhibitory concentration (MIC)
How it was run: as §1

[15] = test system: E. aerogenes NCIM 5139; assay: MIC by micro broth dilution; type: cell-based; conditions: Klebsiella aerogenes, NCIM5139, read-out: Minimum inhibitory concentration (MIC)
How it was run: as §1

[16] = test system: E. aerogenes M2-1; assay: MIC by micro broth dilution; type: cell-based; conditions: Klebsiella aerogenes, M21, read-out: Minimum inhibitory concentration (MIC)
How it was run: as §1

[17] = test system: S. aureus MTCC 6908; assay: MIC by micro broth dilution; type: cell-based; conditions: Staphylococcus aureus, MTCC6908, read-out: Minimum inhibitory concentration (MIC)
How it was run: as §1

[18] = test system: A. baumannii CCARM 12001; assay: MIC by micro broth dilution; type: cell-based; conditions: Acinetobacter baumannii, CCARM12001, read-out: Minimum inhibitory concentration (MIC)
How it was run: as §1

[19] = test system: S. aureus ATCC 43300; assay: MIC by micro broth dilution; type: cell-based; conditions: Staphylococcus aureus, ATCC43300; S. aureus ATCC 43300; read-out: Minimum inhibitory concentration (MIC)
How it was run: as §1

[20] = test system: A. baumannii CCARM 12020; assay: MIC by micro broth dilution; type: cell-based; conditions: Acinetobacter baumannii, CCARM12020, read-out: Minimum inhibitory concentration (MIC)
How it was run: as §1

[21] = test system: P. aeruginosa ATCC 27853; assay: MIC by micro broth dilution; type: cell-based; conditions: Pseudomonas aeruginosa, ATCC27853, read-out: Minimum inhibitory concentration (MIC)
How it was run: as §1

MIC [3]: > 16 µg/mL | MIC [4]: 4 µg/mL (≈ 8.43 µM) | MIC [5]: 1 µg/mL (≈ 2.11 µM) | MIC [6]: 1 µg/mL (≈ 2.11 µM) | MIC ([7]; Klebsiella pneumoniae, ATCC13883, K. pneumonia ATCC 13883, read-out: Minimum inhibitory concentration (MIC)): 0.25 µg/mL (≈ 0.527 µM) | MIC [8]: 2.25 µg/mL (≈ 4.74 µM) | MIC [9]: < 0.03 µg/mL | MIC [10]: 0.125 µg/mL (≈ 0.263 µM) | MIC [11]: 4 µg/mL (≈ 8.43 µM) | MIC [12]: 1 µg/mL (≈ 2.11 µM) | MIC [13]: > 16 µg/mL | MIC [14]: 0.13 µg/mL (≈ 0.274 µM) | MIC [15]: 0.125 µg/mL (≈ 0.263 µM) | MIC [16]: 0.25 µg/mL (≈ 0.527 µM) | MIC [17]: 0.04 µg/mL (≈ 0.0843 µM) | MIC [18]: > 16 µg/mL | MIC [19]: < 0.02 µg/mL | MIC [20]: 8 µg/mL (≈ 16.9 µM) | MIC [21]: 1 µg/mL (≈ 2.11 µM)
SMILES: CC1Sc2c(C(=O)O)c(=O)c3cc(F)c(N4CCN(Cc5ccc([N+](=O)[O-])o5)CC4)cc3n21 (stereo not shown) [Compound 10, 6-Fluoro-1-methyl-7-(4-((5-nitrofuran-2-yl)methyl)piperazin-1-yl)-4-oxo-1H,4H-[1,3]thiazeto[3,2-a]-quinoline-3-carboxylic acid]
Sequential ZOI ([1]; Day-1): 2.2 cm | Sequential ZOI ([1]; Day-2): 2 cm | Sequential ZOI ([1]; Day-3): 1.8 cm | Sequential ZOI ([1]; Day-4): 1.7 cm | Sequential ZOI ([1]; Day-5): 1.7 cm | Sequential ZOI ([1]; Day-6): 1.6 cm | Sequential ZOI ([1]; Day-7): 1.8 cm | drug release from bone cement in words [2]: sustained release of active over a period of 7 days | activity in words ([7]; Klebsiella pneumonia (susceptible)): active
